This note sets out measurements from patent publication US20220378763A1, “COMPOUND FOR TREATMENT OF ACUTE INFLAMMATION IN THE MYOCARDIUM” (CALPROTECT AB, priority 2019, published 2022).

Experiment [1] has as its system C57BL/6 mice with MI induced by permanent coronary artery ligation. The experiment in a line: Quantitative PCR of whole heart tissue 3 days post-MI. It is filed as in vivo, mouse. The procedure: Total RNA was isolated from whole heart tissue using the TRI Reagent™ Solution (Invitrogen) according to the manufacturer's instructions. cDNA was generated from 2 μg of total RNA per sample using the High Capacity RNA to cDNA™ Kit (Applied Biosystems™). Quantitative real-time TaqMan PCR was performed using the following TaqMan primers (Applied Biosystems): Il-1b (Mm00434228_m1), Arg-1 (Mm00475988_m1), Ym-1 (Mm00657889_mH), Cc/5 (Mm01302427_m1), Tnf-α (Mm00443258_m1), Il-12 (Mm01288989_m1), IFN-γ (Mm01168134_m1), Il-10 (Mm00439614_m1), TGF-β (Mm01178820_m1), Il-4 (Mm00445259_m1) and housekeeping gene Hypoxantine-guanine phosphoribosyltransferase (HPRT) (Mm01324427_m1). Quantitative PCR was run on a ViiA7 Real-Time PCR System (Applied Biosystems) and data were quantified with the 2^−ΔCt method.
In order to assess the effects of the treatment on the post-MI cardiac environment, we performed qPCR analysis of mRNA encoding for proteins involved in myocardial inflammation and repair. The analysis was done in whole heart tissue collected at 3 days post-MI from mice receiving ABR-238901 or PBS (n=5 mice per group). […] The expression of IL-1β, TNFα, IL-10 and TGFβ was not affected at this stage (FIG. 3C, D, H). […] As neutrophils are the main producers of S100A8/A9, this effect is in line with the blunted local and systemic neutrophil response to MI observed in ABR-238901-treated mice (FIG. 2A, H).

Experiment [2] concerns C57BL/6 mice reconstituted with Nur77-EGFP bone marrow, with MI. The experiment in a line: Nur77 expression by flow cytometry in Nur77-EGFP bone marrow chimeras, day 7 post-MI. Conditions: 7 days treatment. It is filed as in vivo, mouse. Here is the method:
Eight-week-old C57BL/6NRJ female mice were lethally irradiated with a total dose of 910 cGy. One day after irradiation, 1×10^6 total bone marrow cells harvested from donor C57BL/6-Tg(Nr4a1-EGFP/cre)820Khog/J (Nur77-EGFP) mouse and re-suspended in PBS were administered to each recipient mouse via the tail vein. Recipient mice were treated with neomycin in drinking water (2 g/L) for two weeks. Blood samples were collected from all the recipient mice at four weeks after bone marrow transfer, to confirm the success of bone marrow reconstitution by flow cytometry. The mice were used for experiments 6 weeks after bone marrow transfer (FIG. 4S).
In order to investigate the underlying molecular mechanisms involved in the […] of myocardial repair by S100A9 blockade, we induced MI in C57Bl/6 mice transplanted with Nur77-EGFP transgenic bone marrow expressing the fluorescent EGFP protein under the Nur77 promoter (FIG. 4S). The expression of Nur77 was measured by flow cytometry in blood monocytes and heart macrophages harvested on day 7 post-MI from mice receiving 7 days ABR-238901 treatment or PBS. […] Nur77 levels were unaffected in the fully-differentiated Ly6C^lo monocytes and Ly6C^loMerTK^hi macrophages (FIG. 4t; FIG. 11b). Further, we studied the influence of S100A9 on Nur77 expression and activity in monocytes and macrophages in-vitro, and the ability of ABR-238901 to inhibit these effects. Stimulation with recombinant extracellular S100A9 for 24 h increased Nur77 expression in bone marrow-derived C57BL/6 monocytes (FIG. 4U). […] Both of these effects were inhibited by ABR-238901 (FIG. 4U-V).
On the technique in general: In flow cytometry, cells or beads pass a laser one at a time.

With `COc1ncc(S(=O)(=O)Nc2cncc(Cl)c2O)cc1Br` [ABR-238901, 5-bromo-N-(5-chloro-4-hydroxypyridin-3-yl)-6-methoxypyridine-3-sulfonamide], in experiment [1], the “Gene expression of the chemokine CCL5/RANTES in heart” value is on record as “inhibited”, the “IL-1β expression in heart” value was “not affected”, the “IL-10 expression in heart” value is “not affected” and the “TGFβ expression in heart” value is “not affected”. For the same compound, in experiment [1], the “TNFα expression in heart” value was “not affected”. Besides, in experiment [1] (vs MI controls), the “Arg-1 mRNA expression in heart” value is given as “enhanced”, the “IFN-γ mRNA expression in heart” value is recorded as “inhibited”, the “IL-4 mRNA expression in heart” value was “enhanced” and the “IL-12 mRNA expression in heart” value was “inhibited”. Also, the “Ym-1 mRNA expression in heart” value in experiment [1] (vs MI controls) is listed as “enhanced”. Besides, in experiment [2], the “Intracellular Nur77 levels in blood Ly6Chi/int monocytes” value was “lower”, the “Numbers of reparatory Ly6CloMerTKhi macrophages in the myocardium” value is recorded as “reduced”, the “Nur77 levels in Ly6Clo monocytes” value is on record as “unaffected” and the “Nur77 levels in Ly6CloMerTKhi macrophages” value is recorded as “unaffected”.
